Each block holds one molecule with its values, some of them ahead of it.
Assays:
[1] = test system: mice bearing LNCaP tumor xenografts; test: PET/CT imaging of 68Ga-labeled compounds; format: in vivo; conditions: for blood retention (qualitative): PET/CT images at 1 h and 3 h post-injection, comparison within the figure
Procedure, shortened: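 Male NOD SCID IL2Rγ KO mice bore subcutaneous LNCaP xenografts (1×10^7 cells, tumours 5-8 mm) and received 6-8 MBq tracer via tail vein under 2% isoflurane. At 50 min p.i., a 10-min CT and a 10-min static PET were acquired. For the 3 h time point, scanning began at 170 min p.i. with a 15-min static PET.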

[2] = test system: mice bearing PSMA-expressing LNCAP cancer xenografts; test: Biodistribution of 68Ga-labeled compounds; format: in vivo
Procedure, shortened: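 NOD-SCID IL2RγKO male mice carried subcutaneous LNCaP xenografts grown to 5-8 mm over 5-6 weeks. Organs and blood were collected at 1 or 3 h after injection of the radiotracer and gamma-counted. Uptake was normalized to injected dose via a standard curve and expressed as %ID/g.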

change of tumor uptake from 1 h to 3 h post-injection ([1]; PET/CT images): increases over time | excretion pathway ([1]; PET/CT images): excreted mainly by the renal pathway | blood retention (qualitative) [1]: significantly higher blood retention | Adrenal glands uptake ([2]; 1 h post-injection): 3.28 ± 0.54 % ID/g | Blood uptake ([2]; 1 h post-injection): 12.1 ± 0.60 % ID/g | Bone uptake ([2]; 1 h post-injection): 0.72 ± 0.19 % ID/g | Brain uptake ([2]; 1 h post-injection): 0.15 ± 0.01 % ID/g | Fat uptake ([2]; 1 h post-injection): 1.37 ± 0.17 % ID/g | Heart uptake ([2]; 1 h post-injection): 2.76 ± 0.25 % ID/g | Intestine uptake ([2]; 1 h post-injection): 0.91 ± 0.07 % ID/g | Kidneys uptake ([2]; 1 h post-injection): 54.7 ± 4.84 % ID/g | Lacrimal uptake ([2]; 1 h post-injection): 0.24 ± 0.05 % ID/g | Liver uptake ([2]; 1 h post-injection): 1.77 ± 0.27 % ID/g | Lungs uptake ([2]; 1 h post-injection): 5.43 ± 0.65 % ID/g | Muscle uptake ([2]; 1 h post-injection): 0.94 ± 0.02 % ID/g | Pancreas uptake ([2]; 1 h post-injection): 1.16 ± 0.11 % ID/g | Salivary uptake ([2]; 1 h post-injection): 2.51 ± 0.18 % ID/g | Seminal uptake ([2]; 1 h post-injection): 0.71 ± 0.10 % ID/g | Spleen uptake ([2]; 1 h post-injection): 2.18 ± 0.51 % ID/g | Stomach uptake ([2]; 1 h post-injection): 0.34 ± 0.04 % ID/g | Tail uptake ([2]; 1 h post-injection): 3.39 ± 0.59 % ID/g | Testes uptake ([2]; 1 h post-injection): 1.54 ± 0.18 % ID/g | Thyroid uptake ([2]; 1 h post-injection): 2.24 ± 0.15 % ID/g | Tumor uptake ([2]; 1 h post-injection): 17.8 ± 2.89 % ID/g | Tumor:Blood ratio ([2]; 1 h post-injection): 1.47 ± 0.28 | Tumor:Muscle ratio ([2]; 1 h post-injection): 18.8 ± 2.968 | Tumor:kidney ratio ([2]; 1 h post-injection): 0.32 ± 0.04 | Urine uptake ([2]; 1 h post-injection): 82.9 ± 62.5 % ID/g | Adrenal glands uptake ([2]; 3 h post-injection): 1.80 ± 0.39 % ID/g | Blood uptake ([2]; 3 h post-injection): 6.60 ± 0.84 % ID/g | Bone uptake ([2]; 3 h post-injection): 0.33 ± 0.16 % ID/g | Brain uptake ([2]; 3 h post-injection): 0.09 ± 0.02 % ID/g | Fat uptake ([2]; 3 h post-injection): 0.95 ± 0.12 % ID/g | Heart uptake ([2]; 3 h post-injection): 1.53 ± 0.21 % ID/g | Intestine uptake ([2]; 3 h post-injection): 0.71 ± 0.07 % ID/g | Kidneys uptake ([2]; 3 h post-injection): 48.5 ± 10.7 % ID/g | Lacrimal uptake ([2]; 3 h post-injection): 0.07 ± 0.04 % ID/g | Liver uptake ([2]; 3 h post-injection): 1.40 ± 0.35 % ID/g | Lungs uptake ([2]; 3 h post-injection): 3.49 ± 0.64 % ID/g | Muscle uptake ([2]; 3 h post-injection): 0.57 ± 0.09 % ID/g | Pancreas uptake ([2]; 3 h post-injection): 0.70 ± 0.11 % ID/g | Salivary uptake ([2]; 3 h post-injection): 1.39 ± 0.13 % ID/g | Seminal uptake ([2]; 3 h post-injection): 0.47 ± 0.09 % ID/g | Spleen uptake ([2]; 3 h post-injection): 1.58 ± 0.37 % ID/g | Stomach uptake ([2]; 3 h post-injection): 0.27 ± 0.08 % ID/g | Tail uptake ([2]; 3 h post-injection): 1.50 ± 0.17 % ID/g | Testes uptake ([2]; 3 h post-injection): 1.30 ± 0.30 % ID/g | Thyroid uptake ([2]; 3 h post-injection): 1.39 ± 0.16 % ID/g | Tumor uptake ([2]; 3 h post-injection): 28.2 ± 5.44 % ID/g | Tumor:Blood ratio ([2]; 3 h post-injection): 4.33 ± 1.06 | Tumor:Muscle ratio ([2]; 3 h post-injection): 50.5 ± 13.5 | Tumor:kidney ratio ([2]; 3 h post-injection): 0.59 ± 0.10 | Urine uptake ([2]; 3 h post-injection): 1.30 ± 47.9 % ID/g
SMILES: COc1ccc(CCCC(=O)NCC(=O)N[C@@H](CCCCNC(=O)CN2CCN(CC(=O)[O-])CCN(CC(=O)[O-])CCN(CC(=O)[O-])CC2)C(=O)NC[C@H]2CC[C@H](C(=O)N[C@@H](Cc3ccc4ccccc4c3)C(=O)NCCCC[C@H](NC(=O)N[C@@H](CCC(=O)O)C(=O)O)C(=O)O)CC2)cc1.[68Ga+3] [^68Ga-HTK03086]

change of tumor uptake from 1 h to 3 h post-injection ([1]; PET/CT images): increases over time | blood retention (qualitative) [1]: significantly higher blood retention | Adrenal glands uptake ([2]; 1 h post-injection): 4.57 ± 1.06 % ID/g | Blood uptake ([2]; 1 h post-injection): 6.69 ± 0.27 % ID/g | Bone uptake ([2]; 1 h post-injection): 0.41 ± 0.08 % ID/g | Brain uptake ([2]; 1 h post-injection): 0.09 ± 0.01 % ID/g | Fat uptake ([2]; 1 h post-injection): 2.14 ± 0.29 % ID/g | Heart uptake ([2]; 1 h post-injection): 1.73 ± 0.14 % ID/g | Intestine uptake ([2]; 1 h post-injection): 0.76 ± 0.05 % ID/g | Kidneys uptake ([2]; 1 h post-injection): 91.1 ± 7.42 % ID/g | Lacrimal uptake ([2]; 1 h post-injection): 0.05 ± 0.03 % ID/g | Liver uptake ([2]; 1 h post-injection): 1.33 ± 0.27 % ID/g | Lungs uptake ([2]; 1 h post-injection): 4.68 ± 0.35 % ID/g | Muscle uptake ([2]; 1 h post-injection): 0.79 ± 0.06 % ID/g | Pancreas uptake ([2]; 1 h post-injection): 1.00 ± 0.07 % ID/g | Salivary uptake ([2]; 1 h post-injection): 3.95 ± 0.32 % ID/g | Seminal uptake ([2]; 1 h post-injection): 0.66 ± 0.24 % ID/g | Spleen uptake ([2]; 1 h post-injection): 8.56 ± 3.07 % ID/g | Stomach uptake ([2]; 1 h post-injection): 0.34 ± 0.07 % ID/g | Tail uptake ([2]; 1 h post-injection): 2.54 ± 0.33 % ID/g | Testes uptake ([2]; 1 h post-injection): 1.35 ± 0.14 % ID/g | Thyroid uptake ([2]; 1 h post-injection): 2.32 ± 0.10 % ID/g | Tumor uptake ([2]; 1 h post-injection): 21.7 ± 2.48 % ID/g | Tumor:Blood ratio ([2]; 1 h post-injection): 3.25 ± 0.43 | Tumor:Muscle ratio ([2]; 1 h post-injection): 27.4 ± 4.01 | Urine uptake ([2]; 1 h post-injection): 47.9 ± 46.6 % ID/g | Adrenal glands uptake ([2]; 3 h post-injection): 2.76 ± 0.44 % ID/g | Blood uptake ([2]; 3 h post-injection): 2.52 ± 0.69 % ID/g | Bone uptake ([2]; 3 h post-injection): 0.15 ± 0.05 % ID/g | Brain uptake ([2]; 3 h post-injection): 0.04 ± 0.02 % ID/g | Fat uptake ([2]; 3 h post-injection): 1.28 ± 0.25 % ID/g | Heart uptake ([2]; 3 h post-injection): 0.68 ± 0.16 % ID/g | Intestine uptake ([2]; 3 h post-injection): 0.45 ± 0.10 % ID/g | Kidneys uptake ([2]; 3 h post-injection): 96.4 ± 21.9 % ID/g | Lacrimal uptake ([2]; 3 h post-injection): 0.00 ± 0.00 % ID/g | Liver uptake ([2]; 3 h post-injection): 0.73 ± 0.41 % ID/g | Lungs uptake ([2]; 3 h post-injection): 2.14 ± 0.42 % ID/g | Muscle uptake ([2]; 3 h post-injection): 0.29 ± 0.04 % ID/g | Pancreas uptake ([2]; 3 h post-injection): 0.47 ± 0.07 % ID/g | Salivary uptake ([2]; 3 h post-injection): 1.45 ± 0.33 % ID/g | Seminal uptake ([2]; 3 h post-injection): 0.24 ± 0.05 % ID/g | Spleen uptake ([2]; 3 h post-injection): 2.56 ± 0.89 % ID/g | Stomach uptake ([2]; 3 h post-injection): 0.19 ± 0.04 % ID/g | Tail uptake ([2]; 3 h post-injection): 1.01 ± 0.23 % ID/g | Testes uptake ([2]; 3 h post-injection): 0.73 ± 0.16 % ID/g | Thyroid uptake ([2]; 3 h post-injection): 0.98 ± 0.25 % ID/g | Tumor uptake ([2]; 3 h post-injection): 31.2 ± 2.11 % ID/g | Tumor:Blood ratio ([2]; 3 h post-injection): 13.1 ± 3.76 | Tumor:Muscle ratio ([2]; 3 h post-injection): 108 ± 13.6 | Urine uptake ([2]; 3 h post-injection): 88.5 ± 45.6 % ID/g
SMILES: O=C([O-])CN1CCN(CC(=O)[O-])CCN(CC(=O)NCCCC[C@H](NC(=O)CNC(=O)CCCc2ccc([N+](=O)[O-])cc2)C(=O)NC[C@H]2CC[C@H](C(=O)N[C@@H](Cc3ccc4ccccc4c3)C(=O)NCCCC[C@H](NC(=O)N[C@@H](CCC(=O)O)C(=O)O)C(=O)O)CC2)CCN(CC(=O)[O-])CC1.[68Ga+3] [^68Ga-HTK03089]

— patent US20200339625A1, “NOVEL RADIOMETAL-BINDING COMPOUNDS FOR DIAGNOSIS OR TREATMENT OF PROSTATE SPECIFIC MEMBRANE ANTIGEN-EXPRESSING CANCER” (PROVINCIAL HEALTH SERVICES AUTHORITY, priority 2017, published 2020)
